Experiments:
Type in all cases: in vivo
rice plant = experiment: Test Example 5: effect on crop by foliage application, plastic box (symbol b); conditions: 320 g/ha, 3 weeks after application
How it was run: (§1)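 Crop and weed seeds sown in spots in sterilized diluvial soil in plastic boxes and covered with about 1.5 cm soil. Plants raised in a greenhouse at 25° C. to 30° C. for foliar application.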

wheat = experiment: Test Example 5: effect on crop by foliage application, plastic box (symbol e); conditions: 320 g/ha, 3 weeks after application
How it was run: as §1

beet [1] = experiment: Test Example 4: effect on crop by soil treatment (symbol f); conditions: application herbicide amount 320 g/ha
How it was run: (§2)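 Diluvial soil (sterilized) in boxes; seeds placed spot-wise alongside weed species; ~1.5 cm covering soil. Greenhouse, 25–30° C.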

[2] = test system: Echinochloa oryzacola Vasing.; experiment: Test Example 1: herbicidal activity, application before weed generation in submerged conditions (symbol A); conditions: application herbicide amount 320 g/ha
How it was run: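 Steps: alluvial soil flooded to 4 cm; weed seeds sown together; rice seedlings (2.5 leaf) transplanted; diluted emulsion applied to water surface the same day as sowing; plants grown at 25–30 °C in greenhouse; herbicidal effect rated on a 0–5 scale at 3 weeks.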

soybean [3] = experiment: Test Example 5: effect on crop by foliage application, plastic box (symbol d); conditions: 320 g/ha, 3 weeks after application
How it was run: as §1

[4] = test system: Echinochloa crus-galli var. crus-galli; experiment: Test Example 3: herbicidal effect by foliage application, Wagner pot (symbol H); conditions: application herbicide amount 320 g/ha
How it was run: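 Plants sown in submerged alluvial soil (water depth 0.1–0.5 cm) in a 25–30 °C greenhouse and grown 14 days. An emulsion of the compound diluted in water to a set herbicide amount was sprayed uniformly on foliage. Effect on each plant scored 3 weeks after application.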

Alopecurus myosuroides = experiment: Test Example 5: herbicidal effect by foliage application, plastic box (symbol J); conditions: 320 g/ha, 3 weeks after application
How it was run: (§3)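 Herbicide, formulated as an emulsion and diluted in water, is sprayed onto the aerial parts of 14-day seedlings. These were grown at 25° C. to 30° C. in sterilized diluvial soil; effects are graded after 3 weeks.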

soybean [5] = experiment: Test Example 4: effect on crop by soil treatment (symbol d); conditions: application herbicide amount 320 g/ha
How it was run: as §2

beet [6] = experiment: Test Example 5: effect on crop by foliage application, plastic box (symbol f); conditions: 320 g/ha, 3 weeks after application
How it was run: as §1

corn = experiment: Test Example 4: effect on crop by soil treatment (symbol c); conditions: application herbicide amount 320 g/ha
How it was run: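 Plants are raised in a greenhouse (25° C. to 30° C.) from spot-sown seed, which sits under about 1.5 cm of sterilized diluvial soil in a box shared with weed species.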

transplanted rice plant = experiment: Test Example 1: effect on crop, application before weed generation in submerged conditions (symbol a); conditions: application herbicide amount 320 g/ha
How it was run: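 Rice at 2.5 leaf stage transplanted into submerged soil (4 cm depth) sown with three weed species; herbicide applied before weed emergence.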

Abutilon theophrasti = experiment: Test Example 5: herbicidal effect by foliage application, plastic box (symbol M); conditions: 320 g/ha, 3 weeks after application
How it was run: as §3

Galium spurium = experiment: Test Example 5: herbicidal effect by foliage application, plastic box (symbol Q); conditions: 320 g/ha, 3 weeks after application
How it was run: as §3

Stellaria media = experiment: Test Example 4: herbicidal effect by soil treatment (symbol P); conditions: application herbicide amount 320 g/ha
How it was run: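 Seeds were sown in sterilized diluvial soil, covered with about 1.5 cm of soil, and the soil surface was sprayed with a water-diluted emulsion of the compound at a predetermined rate. Plants grew in a greenhouse at 25° C. to 30° C.; effects were scored visually 3 weeks after application.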

Structure (SMILES) | b: directly sowed rice plant, effect on crop grade (rice plant) | e: wheat, effect on crop grade (wheat) | f (beet) effect on crop grade (beet [1]) | Herbicidal effect grade, A: Echinochloa oryzacola Vasing. [2] | d: soybean, effect on crop grade (soybean [3]) | herbicidal effect on H (Echinochloa crus-galli var. crus-galli), grade 0-5 [4] | J: Alopecurus myosuroides, herbicidal effect grade (Alopecurus myosuroides) | d (soybean) effect on crop grade (soybean [5]) | f: beet, effect on crop grade (beet [6]) | c (corn) effect on crop grade (corn) | Effect grade on crop, a: transplanted rice plant (transplanted rice plant) | M: Abutilon theophrasti, herbicidal effect grade (Abutilon theophrasti) | Q: Galium spurium, herbicidal effect grade (Galium spurium) | Effect on crop grade, f: beet (beet [1]) | Effect on crop grade, d: soybean (soybean [5]) | Effect on crop grade, c: corn (corn) | further results
C#CCON=C(C)CC1CC(O)=C(c2c(C)cc(C)cc2C)C1=O (centres unmarked) [1-019] | 5 (Herbicidal ratio of 90% or more (almost completely withered)) | 5 (Herbicidal ratio of 90% or more (almost completely withered)) | 0 (Herbicidal ratio of 5% or lower (almost no effect)) | 5 (Herbicidal ratio of 90% or more (almost completely withered)) | 3 (Herbicidal ratio of 40% or higher and lower than 70%) | 5 (Herbicidal ratio of 90% or more (almost completely withered)) | 5 (Herbicidal ratio of 90% or more (almost completely withered)) | 3 (Herbicidal ratio of 40% or higher and lower than 70%) | 4 (Herbicidal ratio of 70% or higher and lower than 90%) | 4 (Herbicidal ratio of 70% or higher and lower than 90%) | 5 (Herbicidal ratio of 90% or more (almost completely withered)) | 4 (Herbicidal ratio of 70% or higher and lower than 90%) | 4 (Herbicidal ratio of 70% or higher and lower than 90%) | – | – | – | –
CON=C(C)CC1CC(OC(=O)C(C)(C)CCl)=C(c2c(C)cc(C)cc2C)C1=O (centres unmarked) [1-016] | 5 (Herbicidal ratio of 90% or more (almost completely withered)) | 5 (Herbicidal ratio of 90% or more (almost completely withered)) | 0 (Herbicidal ratio of 5% or lower (almost no effect)) | 5 (Herbicidal ratio of 90% or more (almost completely withered)) | 4 (Herbicidal ratio of 70% or higher and lower than 90%) | 5 (Herbicidal ratio of 90% or more (almost completely withered)) | 5 (Herbicidal ratio of 90% or more (almost completely withered)) | 3 (Herbicidal ratio of 40% or higher and lower than 70%) | 3 (Herbicidal ratio of 40% or higher and lower than 70%) | 4 (Herbicidal ratio of 70% or higher and lower than 90%) | 5 (Herbicidal ratio of 90% or more (almost completely withered)) | 4 (Herbicidal ratio of 70% or higher and lower than 90%) | – | – | – | – | –
CON=C(C)CC1CC(OC(=O)C2CC2)=C(c2c(C)cc(C)cc2C)C1=O (centres unmarked) [1-015] | 5 (Herbicidal ratio of 90% or more (almost completely withered)) | 5 (Herbicidal ratio of 90% or more (almost completely withered)) | – | 5 (Herbicidal ratio of 90% or more (almost completely withered)) | 5 (Herbicidal ratio of 90% or more (almost completely withered)) | 5 (Herbicidal ratio of 90% or more (almost completely withered)) | 5 (Herbicidal ratio of 90% or more (almost completely withered)) | 3 (Herbicidal ratio of 40% or higher and lower than 70%) | 3 (Herbicidal ratio of 40% or higher and lower than 70%) | 4 (Herbicidal ratio of 70% or higher and lower than 90%) | 5 (Herbicidal ratio of 90% or more (almost completely withered)) | 4 (Herbicidal ratio of 70% or higher and lower than 90%) | 4 (Herbicidal ratio of 70% or higher and lower than 90%) | – | – | – | –
CON=C(C)CC1CC(OC(=O)C(C)(C)Oc2ccccc2)=C(c2c(C)cc(C)cc2C)C1=O (centres unmarked) [1-017] | 5 (Herbicidal ratio of 90% or more (almost completely withered)) | 5 (Herbicidal ratio of 90% or more (almost completely withered)) | 0 (Herbicidal ratio of 5% or lower (almost no effect)) | 5 (Herbicidal ratio of 90% or more (almost completely withered)) | 4 (Herbicidal ratio of 70% or higher and lower than 90%) | 5 (Herbicidal ratio of 90% or more (almost completely withered)) | 5 (Herbicidal ratio of 90% or more (almost completely withered)) | 2 (Herbicidal ratio of 20% or higher and lower than 40%) | 2 (Herbicidal ratio of 20% or higher and lower than 40%) | 4 (Herbicidal ratio of 70% or higher and lower than 90%) | 5 (Herbicidal ratio of 90% or more (almost completely withered)) | 4 (Herbicidal ratio of 70% or higher and lower than 90%) | – | – | – | – | –
CON=C(C)C(=O)C1CC(O)=C(c2c(C)cc(C)cc2C)C1=O (centres unmarked) [8-002] | 4 (Herbicidal ratio of 70% or higher and lower than 90%) | 0 (Herbicidal ratio of 5% or lower (almost no effect)) | – | 0 (Herbicidal ratio of 5% or lower (almost no effect)) | 0 (Herbicidal ratio of 5% or lower (almost no effect)) | – | 4 (Herbicidal ratio of 70% or higher and lower than 90%) | – | 0 (Herbicidal ratio of 5% or lower (almost no effect)) | – | 0 (Herbicidal ratio of 5% or lower (almost no effect)) | 0 (Herbicidal ratio of 5% or lower (almost no effect)) | – | 0 (Herbicidal ratio of 5% or lower (almost no effect)) | 0 (Herbicidal ratio of 5% or lower (almost no effect)) | 0 (Herbicidal ratio of 5% or lower (almost no effect)) | H (Echinochloa crus-galli var. crus-galli) herbicidal effect grade ([4]; Table 24): 0 (Herbicidal ratio of 5% or lower (almost no effect)); Herbicidal effect grade, P: Stellaria media (Stellaria media): 0 (Herbicidal ratio of 5% or lower (almost no effect))
CCc1cc(Br)cc(C)c1C1=C(O)CC(C(C(C)=O)C(=O)OC)C1=O (centres unmarked) [7-001] | – | – | – | 0 (Herbicidal ratio of 5% or lower (almost no effect)) | – | 4 (Herbicidal ratio of 70% or higher and lower than 90%) | – | – | – | – | 0 (Herbicidal ratio of 5% or lower (almost no effect)) | – | – | 0 (Herbicidal ratio of 5% or lower (almost no effect)) | 0 (Herbicidal ratio of 5% or lower (almost no effect)) | 0 (Herbicidal ratio of 5% or lower (almost no effect)) | b: directly sowed rice plant, effect on crop (criteria of Test Example 1) (rice plant): 1 (Herbicidal ratio of 5% or higher and lower than 20%); e: wheat, effect on crop (criteria of Test Example 1) (wheat): 0 (Herbicidal ratio of 5% or lower (almost no effect)); d: soybean, effect on crop (criteria of Test Example 1) (soybean [3]): 0 (Herbicidal ratio of 5% or lower (almost no effect)); J: Alopecurus myosuroides, herbicidal effect (criteria of Test Example 1) (Alopecurus myosuroides): 3 (Herbicidal ratio of 40% or higher and lower than 70%); f: beet, effect on crop (criteria of Test Example 1) (beet [6]): 0 (Herbicidal ratio of 5% or lower (almost no effect)); M: Abutilon theophrasti, herbicidal effect (criteria of Test Example 1) (Abutilon theophrasti): 0 (Herbicidal ratio of 5% or lower (almost no effect))
